Measured values as given in patent US8202995B2, “Pharmaceutically acceptable salts of aporphine derivatives and carboxyl group-containing agents and methods for preparing the same” (Standard Chem. & Pharm. Co., Ltd., priority 2008, dated 2012).

Key:
[1] = Oxygen radical absorbing capacity, Method B (fluorescenin fluorescence decay, AAPH); type: biochemical; settings: test substance 1 μM, 18.75 mM AAPH, 0.06 μM fluorescenin, 37° C., pH 7.4, FIGS. 10-16
Protocol: In order to evaluate the oxygen radical absorbing capacity of test compounds. The automated assay was carried out as described in a previous report by Gillespie and co-workers (Gillespie et al., 2007). The experiment was conducted at 37° C. under pH 7.4 condition with a blank sample in parallel. Briefly, 2, 2′-azobis (2-amidinopropane) dihydrochloride (AAPH) was used as a peroxyl generator. The final reaction mixture for each black microplat in a 96-well microplate assay contained 0.06 μM fluorescenin, 18.75 mM AAPH and appropriate test substance (1 μM) in 75 mM phosphate buffer. Test substance was directly dissolved in DMSO and diluted with 75 mM potassium phosphate buffer (pH 7.4) for analysis. The analyzer was programmed to record the fluorescence of fluorescenin every minute after the addition of AAPH. All fluorescent measurements are expressed relative to the initial reading (excitation at 485 nm and emission at 530 nm) on a FLUOstar Galaxy plate reader (Roche Diagnostic System Inc., Branchburg, N.J.). Raw data were exported from the Fluostar Galaxy software to an Excel (Microsoft, Roselle, Ill.) sheet for further calculations. All the reaction mixtures were prepared in duplicate, and at least three independent assays were performed for each sample. (Gillespie, K M et al., Nature Protocols 2007; 2: 867-870.)

[2] = Free radical scavenging of 1,1-diphenyl-2-picryl-hydrazyl (DPPH); type: biochemical; settings: DPPH 100 μM, 30 min, absorbance at 517 nm, FIGS. 2-8
Protocol: After 30 min, the absorbance (O.D.) was monitored spectrophotometrically at 517 nm. The activity in inhibiting free radical DPPH results in the decrease of absorbance.

[3] = Protection from peroxy radical-induced damage, Method A (β-phycoerythrin fluorescence, AAPH); type: biochemical; settings: test compound 5×10^−6 M, AAPH 25 mM, β-phycoerythrin 5 nM, pH 7.4, FIG. 9
From the text: In order to evaluate the effect of test compounds in scavenging hydrophilic peroxy radical, the experiment was executed with reference to the method described by Tsuchiya et al. (Methods Enzymol 1992, 213: 460-472). In the experiment, peroxides will react with fluorescent substances and thus inflect observed fluorescence intensity. Thereby, the effect of test compounds in free radical scavenging can be evaluated by measuring the variation of the fluorescence intensity after the addition of test compounds.
First, to a silicate tube was added a phosphate solution (2 ml, pH 7.4), followed by the addition of β-phycoerythrin (5 nM) to increase relative fluorescence intensity. After 5 minutes, 2,2′-azobis (2-amidinopropane)dihydrochloride (25 mM, AAPH) was added therein. Subsequently, through a fluorescent spectrometry (Shimadzu RF-5301PC, Japan), the fluorescence intensity of β-phycoerythrin was measured by excitation at 540 nm and emission at 570 nm. Then, the test compounds (5×10^−6 M) was further added therein to observe the variation of the fluorescence intensity, in which 0.1% DMSO was taken as a control group.

[4] = test system: lipid peroxidase, Dunkin Hartley Guinea pig liver microsomes; experiment: Activity in inhibiting lipid peroxidase (malondialdehyde quantitation); type: biochemical; settings: 10 μM, 20 minutes/37° C.
Protocol: The assay was executed with reference to the method described in Biochem Biophys Res Commun. Mar. 28, 1986; 135(3): 1015-21.
• (a) Source: Dunkin Hartley Guinea pig liver microsomes • (b) Substrate: Polyunsaturated fatty acid • (c) Vehicle: 1% DMSO • (d) Pre-Incubation Time/Temp: 15 minutes/37° C. • (e) Incubation Time/Temp: 20 minutes/37° C. • (f) Incubation Buffer: 0.25 M Potassium Phosphate, pH 7.4, 0.1 mM EDTA • (g) Quantitation Method: Spectrophotometric quantitation of Malondialdehyde

[5] = test system: vascular smooth muscle cells of rats; experiment: Protecting activity in vascular smooth muscle cells against H2O2 (MTT); type: cell-based, rat; settings: 10 μM compound, 30 minutes before H2O2 200 μM for 24 hours, FIG. 17
Protocol: The vascular smooth muscle cells of rats (2×10^4 cells/mL×1 mL) were quantitatively seeded in 24-well plates, and cultured in Dulbecco's modified Eagle medium (DMEM) with 10% fetal bovine serum (FBS) for 24 hours to achieve cell adhesion. After cell adhesion, the DMEM medium with 10% fetal bovine serum was replaced with a fresh DMEM medium with 0.1% fetal bovine serum to perform cell culture for 48 hours.
Next, each test compound was added in the cultures (final concentration: 0.1, 1, 10 μM). After 30 minutes, H2O2 (200 μM) was added therein to perform reaction for 24 hours in an incubator. Subsequently, in a light-proof environment, MTT (100 μL) was added into each well to perform reaction at 37° C. for 3 hours. The supernatant liquor was removed and then isopropanol (500 μL) was added, followed by shaking for 10 minutes. After standing for 10 minutes, supernatant liquor (200 μL) was transferred into 96-well plates. Finally, the absorbance value (O.D.) was monitored at 540 nm (OD540) and 630 nm (OD630). Based on the measured absorbance values (OD540-OD630), the effect of these test compounds on cell growth can be evaluated, as shown in FIG. 3.

[6] = HOPE (n=9297), patients with high cardiovascular risk; cited from earlier work
[7] = PROGRESS (n=6105), individuals with cerebrovascular disease; cited from earlier work

Compound | activity in free radical scavenging of APPH in comparison with carboxyl group-containing agent alone and aporphine alone [1] | activity in free radical scavenging of DPPH in comparison with carboxyl group-containing agent alone and thaliporphine alone [2] | other results
COc1cc2c(cc1OC)-c1c(OC)c(OC)cc3c1C(C2)N(C)CC3.O=C(O)C=Cc1ccc(Cn2ccnc2)cc1 (stereo not shown) [ozagrel salt of glaucine] | much higher activity |  | 
CC(=O)NC(CS)C(=O)O.COc1cc2c(cc1O)CC1c3c(cc(OC)c(OC)c3-2)CCN1C (stereo not shown) [acetylcysteine salt of thaliporphine, Acetylcysteine salt of Thaliporphine] | much higher activity | much higher activity | 
COc1cc2c(cc1OC)-c1c(O)c(OC)cc3c1C(C2)N(CC(O)COc1ccccc1OC)CC3 (stereo not shown) [Compound 1] |  |  | protection of β-phycoerythin from peroxy radical AAPH-induced damage (fluorescence degradation) [3]: can protect β-phycoerythin; Inhibition (%) [4]: 64%; inhibition of H2O2-induced damage to vascular smooth muscle cells [5]: significantly inhibited
Atorvastatin salt of Thaliporphine | much higher activity | much higher activity | 
salsalate salt of thaliporphine | much higher activity | much higher activity | 
COc1cc2c(cc1OC)-c1c(O)c(OC)cc3c1C(C2)N(CC(=O)Nc1c(C)cccc1C)CC3 (stereo not shown) [Compound 2] |  |  | protection of β-phycoerythin from peroxy radical AAPH-induced damage (fluorescence degradation) [3]: can protect β-phycoerythin; Inhibition (%) [4]: 70%; inhibition of H2O2-induced damage to vascular smooth muscle cells [5]: slightly inhibited
CCOC(=O)[C@H](CCc1ccccc1)N[C@@H](C)C(=O)N1[C@H](C(=O)O)C[C@@H]2CCC[C@@H]21 [ramipril] |  |  | reduction of composite outcome (cardiovascular death, myocardial infarction and cerebrovascular accident) [6]: 22%
Captopril salt of Thaliporphine | much higher activity | much higher activity | 
bezafibrate salt of thaliporphine | much higher activity | much higher activity | 
CCC[C@H](N[C@@H](C)C(=O)N1[C@H](C(=O)O)C[C@@H]2CCCC[C@@H]21)C(=O)OCC [perindopril] |  |  | reduction of recurrent stroke [7]: 28%
nateglinide salt of thaliporphine | much higher activity | much higher activity | 
Telmisartan salt of Thaliporphine |  | much higher activity | 
